In US8809541B2, “Heterocyclic compound, and composition for treating inflammatory diseases using same” (Neopharm Co., Ltd., priority 2010, dated 2014):

Legend:
nude mice (SKH-1) [1] = assay: Recovery of acute skin barrier disruption (tape stripping); assay type: in vivo
Experimental: The recovery rate after acute skin barrier disruption was evaluated on a selected compound by using nude mice. Skins of both abdominal regions of each of 6-8 week aged nude mice (SKH-1) were subjected to repetitive tape stripping, so that transepidermal water loss reached a level of about 35˜40 g/m^2/hr, and then, respective samples were applied thereto. The transepidermal water loss was measured by using the TEWameter (Courage & Khazaka, Germany) immediately before and after skin barrier disruption and 3 hours and 6 hours after application, and the recovery rate of transepidermal water loss was calculated as follows.
(wherein, TEWLa is TEWL value immediately after barrier disruption, TEWLb is TEWL value at the baseline, and TEWLc is TEWL value at the indicated time.)

nude mice (SKH-1) [2] = assay: Oxazolone chronic dermatitis animal model; assay type: in vivo; settings: compared with the control group
Experimental: Efficacy of a selected material was evaluated by using a chronic dermatitis animal model. An animal model of which chronic dermatitis was induced by continuously applying oxaozolone, which is a kind of hapten, to the nude mice was used. […] In order to construct a chronic dermatitis animal model, 5% of oxazolone was applied to 6-week nude mice (SKH-1) and thus sensitized, and 0.1% of oxazolone was applied once every two days from a week after, resulting in inducing dermatitis symptom. The sample was applied to an animal after induction at an interval of once a day for three days, and various dermal functions and skin thickness change were observed. Finally, skin biopsy was conducted and histological observation was conducted.
As a positive control group used in the experiment, 0.05% of desonide, which is relatively low potency steroid, was used, and the transepidermal water loss, the moisture content in the stratum corneum, and skin thickness change were observed.

PAR-2 [3] = biological target: T1, PAR-2 (Homo sapiens, UniProt P55085); assay: Calcium immobilization assay (Calcium-4 assay kit); assay type: cell-based; design: expressed in transfected cells; settings: HCT-15 PAR-2-overexpressed cell line, activating peptide (AP) as activator
T1 sequence (P55085 26-397): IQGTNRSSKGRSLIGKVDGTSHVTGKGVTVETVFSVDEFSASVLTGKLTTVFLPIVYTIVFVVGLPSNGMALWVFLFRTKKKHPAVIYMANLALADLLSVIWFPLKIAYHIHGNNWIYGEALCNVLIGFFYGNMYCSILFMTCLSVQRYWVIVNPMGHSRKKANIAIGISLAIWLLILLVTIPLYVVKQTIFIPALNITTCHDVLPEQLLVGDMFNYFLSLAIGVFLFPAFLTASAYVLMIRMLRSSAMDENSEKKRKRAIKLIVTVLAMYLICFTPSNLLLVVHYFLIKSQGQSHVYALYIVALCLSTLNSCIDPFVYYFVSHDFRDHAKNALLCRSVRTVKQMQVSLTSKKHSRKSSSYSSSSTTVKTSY
Experimental: In order to evaluate PAR-2 inhibitory activity of the synthesized material, first, an assay system capable of measuring the change in concentration of calcium ions in a cell in real-time was constructed, and then an evaluation was conducted by using the assay system. PAR-2 is a kind of G-protein coupled receptor (GPCR). When the PAR-2 is activated in the cell, phospholipase C-b (PLC-b) was activated to cleave phosphatidylinositol 4,5-bisphosphate (PIP2) into inositol triphosphate (IP3) and diacyl glycerol (DAG). The IP3 generated herein promotes secretion of calcium ions in an endoplasmic reticulum (ER), calcium ion reservoir in the cell, resulting in increasing calcium ions in the cell. An in vitro screening assay system capable of searching materials that may suppress the increase in concentration of calcium ions in the cell due to activation of PAR-2 was constructed based on the existing search results. As a PAR-2 activator used in the experiment, activating peptide (AP) was used. As a reagent for detecting the concentration of calcium ions in the cell, the Calcium-4 assay kit by Molecular Probe Company was used. HCT-15, a PAR-2-overexpressed cell line, was used as a cell line used in the experiment.
The PAR-2 inhibitory activity of the synthesized material was evaluated by using such the protocol, and the assay profile of Compound 98 synthesized in Example 1 was shown in FIG. 1.

PAR-2 [4] = biological target: T1, PAR-2; assay: PathHunter β-arrestin GPCR assay; assay type: cell-based; design: expressed in transfected cells; host or cells: KNRK (Kirsten Murine Sarcoma Virus transformed rat kidney epithelial cells); settings: β-arrestin accumulation
Experimental: An in vitro assay protocol capable of detecting activation of PAR-2 was additively introduced besides the calcium immobilization assay, and activity of the selected material was measured. First, the PAR-2 inhibitory activity of Compound 98 was measured by using the PathHunter™ β-arrestin GPCR assay kit by DiscoveRx Company, capable of detecting accumulation of β-arrestin, which is an intercellular reaction material primarily generated by activation of PAR-2. As the measurement results, an IC50 value slightly different from the Calcium immobilization assay was observed (Table 1).

PAR-2 [5] = biological target: T1, PAR-2; assay: Confocal microscopy of PAR-2 activation in KNRK-PAR-2 cell line; assay type: cell-based; design: expressed in transfected cells; host or cells: KNRK (Kirsten Murine Sarcoma Virus transformed rat kidney epithelial cells); settings: [Compound 98]=200 μM, [trypsin]=1 μM, [SLIGKV]=100 μM, KNRK-PAR-2 cells
Experimental: In order to visually confirm activation of PAR-2, a cell line having the following structure was prepared referring to the existing reference documents, and activation of PAR-2 was observed by using a confocal microscopy. As a cell line, Kirsten Murine Sarcoma Virus transformed rat kidney epithelial cell (KNRK cell) was used, which is a cell line where, normally, PAR-2 is not expressed. In the KNRK cell, flag epitope was tagged to an N-terminal and Myc epitope was tagged to a C-terminal, so that a stable transfected cell was constructed. Flag and Myc of the thus prepared KNRK-PAR-2 cell line were subjected to double staining, and activation or non-activation of PAR-2 was observed by using the confocal microscopy ([trypsin]=1 μM, [SLIGKV(AP)]=100 μM). When the PAR-2 was not activated, Flag and Myc were double-stained and thus appears yellow in the merged image. However, when the PAR-2 was activated, Flag was separated away and thus a red image was shown.

(2-methyl-1-m-tolyl-1H-benzo[d]imidazol-5-yl)(piperidin-1-yl)methanone [Compound 98]
Recovery rate of transepidermal water loss after acute skin barrier disruption (nude mice (SKH-1) [1]; 1.0% applied to skin, 3 and 6 hours after application): rapid recovery | Activity in promoting the recovery after skin barrier disruption (nude mice (SKH-1) [1]; overall conclusion, FIG. 3): best activity in promoting the recovery after skin barrier disruption | Recovery of transepidermal water loss (nude mice (SKH-1) [2]; FIG. 4): promoted recovery | Recovery of moisture content in the stratum corneum (nude mice (SKH-1) [2]; FIG. 5): promoted recovery | PCNA positive keratinocyte (PCNA staining) (nude mice (SKH-1) [2]; FIG. 7): statically significant decrease | IC50 (PAR-2 [3]): 243 µM | IC50 (PAR-2 [4]): 95.3 µM | Activation of PAR-2 (Flag/Myc double staining image) (PAR-2 [5]): activation of PAR-2 was suppressed
